Test results: ChEMBL document CHEMBL1649169, “Multiresistance in Pasteurella multocida is mediated by coexistence of small plasmids” (2009)
Values after ≈ are worked out from the molar mass of the structure shown.

How the values were obtained:
Assay type in all cases: functional
Pasteurella multocida [1] = assay: Antibacterial activity against Pasteurella multocida ATCC 43137 by CLSI M31-A3 broth microdilution method
Pasteurella multocida [2] = assay: Antibacterial activity against Pasteurella multocida BB1034 harboring plasmid pB1000 bearing blaROB-1 gene and plasmid pB1001 bearing tetB gene by CLSI M31-A3 broth microdilution method
Pasteurella multocida [3] = assay: Antibacterial activity against Pasteurella multocida BB1035 harboring plasmid pB1000 bearing blaROB-1 gene and plasmid pB1005 bearing strA, sul2 genes by CLSI M31-A3 broth microdilution method
Pasteurella multocida [4] = assay: Antibacterial activity against Pasteurella multocida BB1036 harboring plasmid pB1000 bearing blaROB-1 gene and plasmid pB1005 bearing strA, sul2 genes by CLSI M31-A3 broth microdilution method
Pasteurella multocida [5] = assay: Antibacterial activity against Pasteurella multocida BB1037 harboring plasmid pB1000 bearing blaROB-1 gene and plasmid pB1005 bearing strA, sul2 genes by CLSI M31-A3 broth microdilution method
Pasteurella multocida [6] = assay: Antibacterial activity against Pasteurella multocida BB1038 harboring plasmid pB1000 bearing blaROB-1 gene and plasmid pB1005 bearing strA, sul2 genes by CLSI M31-A3 broth microdilution method
Pasteurella multocida [7] = assay: Antibacterial activity against Pasteurella multocida BB1039 harboring plasmid pB1000 bearing blaROB-1 gene and plasmid pB9956 bearing tetH gene by CLSI M31-A3 broth microdilution method
Pasteurella multocida [8] = assay: Antibacterial activity against Pasteurella multocida BB1040 harboring plasmid pB1000 bearing blaROB-1 gene and plasmid pB9956 bearing tetH gene by CLSI M31-A3 broth microdilution method
Pasteurella multocida [9] = assay: Antibacterial activity against Pasteurella multocida BB1041 harboring plasmid pB1000 bearing blaROB-1 gene and plasmid pB9956 bearing tetH gene by CLSI M31-A3 broth microdilution method
Pasteurella multocida [10] = assay: Antibacterial activity against Pasteurella multocida BB1042 harboring plasmid pB1000 bearing blaROB-1 gene and plasmid pB9956 bearing tetH gene by CLSI M31-A3 broth microdilution method
Pasteurella multocida [11] = assay: Antibacterial activity against Pasteurella multocida BB1043 harboring plasmid pB1000 bearing blaROB-1 gene and plasmid pB9956 bearing tetH gene by CLSI M31-A3 broth microdilution method
Pasteurella multocida [12] = assay: Antibacterial activity against Pasteurella multocida BB1044 harboring plasmid pB1000 bearing blaROB-1 gene, plasmid 1006 bearing tetO gene and plasmid pB1005 bearing strA, sul2 genes by CLSI M31-A3 broth microdilution method
Pasteurella multocida [13] = assay: Antibacterial activity against Pasteurella multocida BB1045 harboring plasmid pB1000 bearing blaROB-1 gene and plasmid pB9956 bearing tetH gene by CLSI M31-A3 broth microdilution method
Pasteurella multocida [14] = assay: Antibacterial activity against Pasteurella multocida BB1046 harboring plasmid pB1003 bearing blaROB-1 gene and plasmid pB1002 bearing strA, sul2 genes by CLSI M31-A3 broth microdilution method

Row | SMILES | MIC (Pasteurella multocida [1]) | MIC (Pasteurella multocida [2]) | MIC (Pasteurella multocida [3]) | MIC (Pasteurella multocida [4]) | MIC (Pasteurella multocida [5]) | MIC (Pasteurella multocida [6]) | MIC (Pasteurella multocida [7]) | MIC (Pasteurella multocida [8]) | MIC (Pasteurella multocida [9]) | MIC (Pasteurella multocida [10]) | MIC (Pasteurella multocida [11]) | MIC (Pasteurella multocida [12]) | MIC (Pasteurella multocida [13]) | MIC (Pasteurella multocida [14])
1 | CC1(C)S[C@@H]2[C@H](NC(=O)[C@H](N)c3ccc(O)cc3)C(=O)N2[C@H]1C(=O)O [AMOXICILLIN] | ≤ 1 µg/mL | > 256 µg/mL | > 256 µg/mL | > 256 µg/mL | > 256 µg/mL | > 256 µg/mL | > 256 µg/mL | > 256 µg/mL | > 256 µg/mL | > 256 µg/mL | > 256 µg/mL | > 256 µg/mL | > 256 µg/mL | > 256 µg/mL
2 | N[C@@H](C(=O)N[C@@H]1C(=O)N2C(C(=O)O)=C(Cl)CS[C@H]12)c1ccccc1 [CEFACLOR ANHYDROUS] | ≤ 1 µg/mL | > 16 µg/mL | > 16 µg/mL | > 16 µg/mL | > 16 µg/mL | > 16 µg/mL | > 16 µg/mL | > 16 µg/mL | > 16 µg/mL | > 16 µg/mL | > 16 µg/mL | > 16 µg/mL | > 16 µg/mL | > 16 µg/mL
3 | CO/N=C(\C(=O)N[C@@H]1C(=O)N2C(C(=O)O)=C(COC(C)=O)CS[C@H]12)c1csc(N)n1 [CEFOTAXIME] | ≤ 0.06 µg/mL | 1 µg/mL (≈ 2.2 µM) | 0.5 µg/mL (≈ 1.1 µM) | 1 µg/mL (≈ 2.2 µM) | 1 µg/mL (≈ 2.2 µM) | 1 µg/mL (≈ 2.2 µM) | 1 µg/mL (≈ 2.2 µM) | 1 µg/mL (≈ 2.2 µM) | 1 µg/mL (≈ 2.2 µM) | 1 µg/mL (≈ 2.2 µM) | 1 µg/mL (≈ 2.2 µM) | 1 µg/mL (≈ 2.2 µM) | 1 µg/mL (≈ 2.2 µM) | 0.5 µg/mL (≈ 1.1 µM)
4 | CC1(C)S[C@@H]2[C@H](NC(=O)Cc3ccccc3)C(=O)N2[C@H]1C(=O)O [PENICILLIN G] | ≤ 0.03 µg/mL | > 16 µg/mL | > 16 µg/mL | > 16 µg/mL | > 16 µg/mL | > 16 µg/mL | > 16 µg/mL | > 16 µg/mL | > 16 µg/mL | > 16 µg/mL | > 16 µg/mL | > 16 µg/mL | > 16 µg/mL | > 16 µg/mL
5 | CN[C@@H]1[C@H](O[C@H]2[C@H](O[C@H]3[C@H](O)[C@@H](O)[C@H](N=C(N)N)[C@@H](O)[C@@H]3N=C(N)N)O[C@@H](C)[C@]2(O)C=O)O[C@@H](CO)[C@H](O)[C@H]1O [STREPTOMYCIN] | 8 µg/mL (≈ 13.8 µM) | 32 µg/mL (≈ 55 µM) | > 256 µg/mL | > 256 µg/mL | > 256 µg/mL | > 256 µg/mL | 8 µg/mL (≈ 13.8 µM) | 16 µg/mL (≈ 27.5 µM) | 16 µg/mL (≈ 27.5 µM) | 8 µg/mL (≈ 13.8 µM) | 8 µg/mL (≈ 13.8 µM) | > 256 µg/mL | 16 µg/mL (≈ 27.5 µM) | > 256 µg/mL
6 | Cc1cc(NS(=O)(=O)c2ccc(N)cc2)no1 [SULFAMETHOXAZOLE] | > 256 µg/mL | > 256 µg/mL | > 256 µg/mL | > 256 µg/mL | > 256 µg/mL | > 256 µg/mL | > 256 µg/mL | > 256 µg/mL | > 256 µg/mL | > 256 µg/mL | > 256 µg/mL | > 256 µg/mL | > 256 µg/mL | > 256 µg/mL
7 | CN(C)[C@@H]1C(O)=C(C(N)=O)C(=O)[C@@]2(O)C(O)=C3C(=O)c4c(O)cccc4[C@@](C)(O)[C@H]3C[C@@H]12 [TETRACYCLINE] | 2 µg/mL (≈ 4.5 µM) | 16 µg/mL (≈ 36 µM) | 2 µg/mL (≈ 4.5 µM) | 2 µg/mL (≈ 4.5 µM) | 2 µg/mL (≈ 4.5 µM) | 2 µg/mL (≈ 4.5 µM) | 32 µg/mL (≈ 72 µM) | 32 µg/mL (≈ 72 µM) | 32 µg/mL (≈ 72 µM) | 32 µg/mL (≈ 72 µM) | 32 µg/mL (≈ 72 µM) | 32 µg/mL (≈ 72 µM) | 32 µg/mL (≈ 72 µM) | 1 µg/mL (≈ 2.25 µM)
